Test results reported in patent publication US11596639B2, “Substituted indole Mcl-1 inhibitors” (Vanderbilt University, priority 2016, dated 2023).

How the values were obtained:
Mcl-1 = Mcl-1 (Homo sapiens (Human), UniProt Q07820); assay: Fluorescence polarization anisotropy (FPA) competition assay, FITC-Bak or FITC-Bim BH3 peptide; assay type: binding; conditions: read-out: Ki for Inhibition of Mcl-1 by FPA assay
[1] = test system: H929 human cancer cell lines; assay: Cellular viability / proliferation (Cell TiterGlo, 72 h); assay type: cell-based; conditions: Homo sapiens, NCI-H929, 72 h, read-out: GI50 on cellular proliferation of H929 human cancer cell lines, H929 cells, 72 h, Cell TiterGlo, 10% FBS
How it was run: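 1,000 cells/well, 10% FBS medium; compound added at 24 h, 2-fold dilutions from 50 μM top, DMSO <1% final. 72 h exposure, CellTiterGlo 30 min RT dark, luminescence read. IC50 by 4-parameter fit.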

Mcl-1, sequence (Q07820 172-327): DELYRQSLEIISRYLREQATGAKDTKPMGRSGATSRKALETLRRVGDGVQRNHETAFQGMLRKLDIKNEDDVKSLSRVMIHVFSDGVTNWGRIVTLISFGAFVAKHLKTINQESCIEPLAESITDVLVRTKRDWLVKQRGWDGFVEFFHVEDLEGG

## Cc1cc(OCCCc2c3n(c4c(-c5c(C)nn(C)c5C)c(Cl)ccc24)[C@H](C)CN(c2cn(C)c4c(-c5nnn[nH]5)cccc24)C3=O)cc(C)c1Cl [Example 258, (R)-7-Chloro-10-(3-(4-chloro-3,5-dimethylphenoxy)propyl)-4-methyl-2-(1-methyl-7-(1H-tetrazol-5-yl)-1H-indol-3-yl)-6-(1,3,5-trimethyl-1H-pyrazol-4-yl)-3,4-dihydropyrazino[1,2-a]indol-1(2H)-one]
Mcl-1
  Ki: < 1 nM
[1]
  GI50: 3600 nM

## Cc1cc(OCCCc2c3n(c4c(-c5c(C)ncnc5C)c(Cl)ccc24)CCCN(c2cccc4cc(C(=O)O)n(C)c24)C3=O)cc(C)c1Cl [Example 219, 7-[8-Chloro-11-[3-(4-chloro-3,5-dimethyl-phenoxy)propyl]-7-(4,6-dimethylpyrimidin-5-yl)-1-oxo-4,5-dihydro-3H-[1,4]diazepino[1,2-a]indol-2-yl]-1-methyl-indole-2-carboxylic acid]
Mcl-1
  Ki: 2.2 nM
[1]
  GI50: 1200 nM

## Cc1cc(OCCCc2c3n(c4c(-c5c(C)nn(C)c5C)c(Cl)ccc24)[C@H](C)CN(c2cc(OCC4COC4)cc4cc(C(=O)O)n(C)c24)C3=O)cc(C)c1Cl [Example 459, (R)-7-(7-Chloro-10-(3-(4-chloro-3,5-dimethylphenoxy)propyl)-4-methyl-1-oxo-6-(1,3,5-trimethyl-1H-pyrazol-4-yl)-3,4-dihydropyrazino[1,2-a]indol-2(1H)-yl)-1-methyl-5-(oxetan-3-ylmethoxy)-1H-indole-2-carboxylic acid]
Mcl-1
  Ki: 1 nM
[1]
  GI50: 510 nM

## Cc1cc(N2C[C@@H](C)n3c(c(CCCOc4cc(C)c(Cl)c(C)c4)c4ccc(Cl)c(-c5c(C)ncnc5C)c43)C2=O)c2c(c1)cc(C(N)=O)n2C [Example 376, (R)-7-(7-Chloro-10-(3-(4-chloro-3,5-dimethylphenoxy)propyl)-6-(4,6-dimethylpyrimidin-5-yl)-4-methyl-1-oxo-3,4-dihydropyrazino[1,2-a]indol-2(1H)-yl)-1,5-dimethyl-1H-indole-2-carboxamide]
Mcl-1
  Ki: 6.5 nM
[1]
  GI50: 750 nM

## COCCn1c(C(=O)O)cc2cccc(N3C[C@@H](C)n4c(c(CCCOc5cc(C)c(Cl)c(C)c5)c5ccc(Cl)c(-c6c(C)nn(C)c6C)c54)C3=O)c21 [Example 256, 7-[(4R)-7-chloro-10-[3-(4-chloro-3,5-dimethyl-phenoxy)propyl]-4-methyl-1-oxo-6-(1,3,5-trimethylpyrazol-4-yl)-3,4-dihydropyrazino[1,2-a]indol-2-yl]-1-(2-methoxyethyl)indole-2-carboxylic acid]
Mcl-1
  Ki: < 1 nM
[1]
  GI50: 270 nM

## Cc1cc(OCCCc2c3n(c4c(-c5c(C)nn(C)c5C)c(Cl)ccc24)[C@H](C)CN(c2cc(C(=O)O)cc4c2OCO4)C3=O)cc(C)c1Cl [Example 33, (R)-7-(7-chloro-10-(3-(4-chloro-3,5-dimethylphenoxy)propyl)-4-methyl-1-oxo-6-(1,3,5-trimethyl-1H-pyrazol-4-yl)-3,4-dihydropyrazino[1,2-a]indol-2(1H)-yl)benzo[d][1,3]dioxole-5-carboxylic acid]
Mcl-1
  Ki: < 1 nM
[1]
  GI50: 650 nM

## Cc1ccnc(Cn2c(C(=O)O)cc3cccc(N4C[C@@H](C)n5c(c(CCCOc6cc(C)c(Cl)c(C)c6)c6ccc(Cl)c(-c7c(C)nn(C)c7C)c65)C4=O)c32)c1 [Example 371, (R)-7-(7-Chloro-10-(3-(4-chloro-3,5-dimethylphenoxy)propyl)-4-methyl-1-oxo-6-(1,3,5-trimethyl-1H-pyrazol-4-yl)-3,4-dihydropyrazino[1,2-a]indol-2(1H)-yl)-1-((4-methylpyridin-2-yl)methyl)-1H-indole-2-carboxylic acid]
Mcl-1
  Ki: < 1 nM
[1]
  GI50: 300 nM
